Consider 20 compounds from patent publication US12084472B2 (Ardelyx, Inc., priority 2015, dated 2024).

Marks after values point to notes of the source that are not given here. Some results are limits rather than exact numbers.

One assay has as its system Western diet (WD)-fed mice. The experiment in a line: Mouse model of NAFLD and mild diabetes, Western diet (WD)-fed mice: glucose, insulin, liver lipids, GLP levels. The conditions noted are these: Western diet; liraglutide 0.4 mg/kg BID SQ; I-389 30 mg/kg BID PO; linagliptin 10 mg/kg QD PO; mean±SEM; vehicle WD 2.13 ± 0.14. The format is in vivo, C57BL/6 male mice. The protocol: Seven week old C57BL/6 male mice were housed 5/cage. Two cages of mice were put on normal chow (Harlan Teklad 2018), and the remaining cages of mice were put on WD (Harlan Teklad, TD.88137, […]/0.2% cholesterol) to induce NAFLD. After 10 weeks, mice were weighed and fasted for 4 h. Blood was collected to measure fasting glucose levels, processed to plasma for measurement of insulin, triglycerides and total cholesterol. This process was repeated on Day 29 of treatment. Based on body weight and fasted glucose and insulin levels, mice were divided into 5 treatment groups (n=10/group), Table 20. […] Mice were weighed twice weekly throughout the study. On the last day of the study (Day 30, 8 hours after food removal), mice were euthanized. Blood was collected in tubes with inhibitors to block DPP-4 activity and processed to plasma for measurement of liver enzymes and GLP levels using an Ace Alera clinical analyzer and the Multi-Array Assay System from Meso Scale Discovery, respectively. The entire liver was collected, weighed, and a sample was taken and weighed for measurement of triglycerides and total cholesterol.
Data for each group are presented as mean±SEM. Statistical analyses were performed using one-way ANOVA followed by Holm-Sidak's multiple comparisons test. For GLP levels, <statistical significance compared to vehicle (WD) is marked as *, P<0.05; **, P<0.01, ***, P<0.001, and ****, P<0.0001; of linagliptin (WD) versus I-389 alone (WD) or linaglptin+I-389 (WD) is marked as †, P<0.05; ††, P<0.01, of †††, P<0.001, and ††††, P<0.0001; and of I-389 (WD) versus linagliptin (WD)+I-389 (WD) is marked as ^, P<0.05; ^ ^P<0.01, ^ ^^P, P<0.001, and ^ ^^^, P<0.0001. For the remaining parameters, statistical significance compared to vehicle (WD) is marked as *, P<0.05; **, P<0.01, ***, P<0.001, and ****, P<0.0001.
Turning to `CC#CCn1c(N2CCC[C@@H](N)C2)nc2c1c(=O)n(Cc1nc(C)c3ccccc3n1)c(=O)n2C` [Linagliptin, linagliptin, reference compound], the Liver weight is reported as 1.77 ± 0.11* g.

The same assay, now with this note: Western diet; liraglutide 0.4 mg/kg BID SQ; I-389 30 mg/kg BID PO; linagliptin 10 mg/kg QD PO; mean±SEM; vehicle WD 2.3 ± 0.3.
Take `CC#CCn1c(N2CCC[C@@H](N)C2)nc2c1c(=O)n(Cc1nc(C)c3ccccc3n1)c(=O)n2C` [Linagliptin, linagliptin, reference compound]: the 4-h fasted insulin is reported as 1.4 ± 0.2** ng/mL.

The assay is the same for the next values; noted with them: Western diet; liraglutide 0.4 mg/kg BID SQ; I-389 30 mg/kg BID PO; linagliptin 10 mg/kg QD PO; mean±SEM; vehicle WD 8.56 ± 0.25.
As to `CC#CCn1c(N2CCC[C@@H](N)C2)nc2c1c(=O)n(Cc1nc(C)c3ccccc3n1)c(=O)n2C` [Linagliptin, linagliptin, reference compound], the Hepatic cholesterol is 10.17 ± 0.21*** mg/g.

The assay is the same for the next values; noted with them: Western diet; liraglutide 0.4 mg/kg BID SQ; I-389 30 mg/kg BID PO; linagliptin 10 mg/kg QD PO; mean±SEM; vehicle WD 145.40 ± 14.80.
For the compound `CC#CCn1c(N2CCC[C@@H](N)C2)nc2c1c(=O)n(Cc1nc(C)c3ccccc3n1)c(=O)n2C` [Linagliptin, linagliptin, reference compound], the Hepatic triglycerides is given as 117.90 ± 6.76 mg/g.

The assay is the same for the next values; noted with them: Western diet; liraglutide 0.4 mg/kg BID SQ; I-389 30 mg/kg BID PO; linagliptin 10 mg/kg QD PO; mean±SEM; vehicle WD 239 ± 13.
Consider `CC#CCn1c(N2CCC[C@@H](N)C2)nc2c1c(=O)n(Cc1nc(C)c3ccccc3n1)c(=O)n2C` [Linagliptin, linagliptin, reference compound], for which the 4-h fasted glucose is on record as 185 ± 6** mg/dL.

Another assay concerns the target T1, human TGR5 (Homo sapiens, UniProt Q8TDU6).
T1 construct: expressed in transfected cells; host or cells: HEK293
T1 sequence (Q8TDU6 1-330): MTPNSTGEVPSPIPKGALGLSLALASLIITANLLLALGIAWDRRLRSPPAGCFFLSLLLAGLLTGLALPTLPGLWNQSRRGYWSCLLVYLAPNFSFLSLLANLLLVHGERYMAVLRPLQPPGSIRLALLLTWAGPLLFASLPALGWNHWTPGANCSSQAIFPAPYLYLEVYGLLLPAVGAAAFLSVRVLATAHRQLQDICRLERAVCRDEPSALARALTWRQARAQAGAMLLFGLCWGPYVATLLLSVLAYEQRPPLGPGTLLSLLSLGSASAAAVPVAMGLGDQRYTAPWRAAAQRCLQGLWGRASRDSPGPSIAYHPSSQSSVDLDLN
The assay is described as follows: Cell-based TGR5 assay (cAMP generation, HTRF). The conditions noted are these: HEK293 cells stably transfected with human TGR5; cAMP by HTRF; 30 minutes at 37° C.; read-out: pEC50 Human TGR5 (converted). The gist of the method:
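First, compounds in 3-fold serial dilution were placed in HBSS with 10 mM HEPES pH 7.4 and 0.5 mM IBMX. Next, human TGR5-expressing HEK293 cells were added and incubated 30 min at 37° C. Finally, cAMP was detected by HTRF and pEC50 derived by logistic fitting.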
As to `CC(C)CN(CCCCNC(=O)NC[C@H](O)[C@@H](O)[C@H](O)[C@H](O)CO)S(=O)(=O)c1ccc(Cl)c(COC2(c3cnccc3-c3ccccc3OC3CC3)CC2)c1` [Compound I-762, 4-chloro-3-((1-(4-(2-cyclopropoxyphenyl)pyridin-3-yl)cyclopropoxy)methyl)-N-isobutyl-N-(4-(3-((2S,3R,4R,5R)-2,3,4,5,6-pentahydroxyhexyl)ureido)butyl)benzenesulfonamide], the EC50 was under 0.1 µM.

Regarding `CC(C)N(CCCCNC(=O)N[C@@H](CO)[C@@H](O)[C@H](O)[C@H](O)CO)S(=O)(=O)c1cc(COC2(c3cnccc3-c3ccccc3OC3CC3)CC2)c(Cl)cc1F` [Compound I-763, 4-chloro-5-((1-(4-(2-cyclopropoxyphenyl)pyridin-3-yl)cyclopropoxy)methyl)-2-fluoro-N-isopropyl-N-(4-(3-((2S,3R,4S,5R)-1,3,4,5,6-pentahydroxyhexan-2-yl)ureido)butyl) benzenesulfonamide], the EC50 is under 0.1 µM. As to `CC(C)N(CCCCNC(=O)NC[C@H](O)[C@@H](O)[C@H](O)[C@H](O)CO)S(=O)(=O)c1cc(COC2(c3cnccc3-c3ccccc3OC3CC3)CC2)c(Cl)cc1F` [Compound I-764, 4-chloro-5-((1-(4-(2-cyclopropoxyphenyl)pyridin-3-yl)cyclopropoxy)methyl)-2-fluoro-N-isopropyl-N-(4-(3-((2S,3R,4R,5R)-2,3,4,5,6-pentahydroxyhexyl)ureido)butyl) benzenesulfonamide], the EC50 was under 0.1 µM.

Consider `COc1cccc(Cl)c1-c1ccncc1C1(OCc2cc(Cl)ccc2Cl)CC1` [Compound I-765, 4-(2-chloro-6-methoxyphenyl)-3-(1-((2,5-dichlorobenzyl)oxy)cyclopropyl)pyridine], for which the EC50 is under 0.1 µM.

Turning to `CC(=O)NCCCCN(C)S(=O)(=O)c1ccc(Cl)c(COC2(c3cnccc3-c3ccccc3OC3CC3)CC2)c1` [Compound I-766, N-(4-((4-chloro-3-((1-(4-(2-cyclopropoxyphenyl)pyridin-3-yl)cyclopropoxy)methyl)-N-methylphenyl)sulfonamido)butyl)acetamide], the EC50 was under 0.1 µM. As to `CN(CCCCNC(=O)NCCCCN(C)S(=O)(=O)c1ccc(Cl)c(COC2(c3cnccc3-c3ccccc3OC3CC3)CC2)c1)S(=O)(=O)c1ccc(Cl)c(COC2(c3cnccc3-c3ccccc3OC3CC3)CC2)c1` [Compound I-767, N,N′-((carbonylbis(azanediyl))bis(butane-4,1-diyl))bis(4-chloro-3-((1-(4-(2-cyclopropoxyphenyl)pyridin-3-yl)cyclopropoxy)methyl)-N-methylbenzenesulfonamide)], the EC50 is 0.126 to 1 µM. On the same count and under the same terms, the figure for `Clc1ccc(Cl)c(COC2(c3cnccc3-c3ccccc3Cl)CC2)c1` [Compound I-768, 4-(2-chlorophenyl)-3-(1-((2,5-dichlorobenzyl)oxy)cyclopropyl)pyridine] is 0.126 to 1 µM; for `CN1CCCN(S(=O)(=O)c2ccc(Cl)c(COC3(c4cnccc4-c4ccccc4OC4CC4)CC3)c2)CC1` [Compound I-769, 1-((4-chloro-3-((1-(4-(2-cyclopropoxyphenyl)pyridin-3-yl)cyclopropoxy)methyl)phenyl)sulfonyl)-4-methyl-1,4-diazepane] it is 0.126 to 1 µM. Same read-out and setting: to `O=S(=O)(Nc1nccs1)c1ccc(Cl)c(COC2(c3cnccc3-c3ccccc3OC3CC3)CC2)c1` [Compound I-770, 4-chloro-3-((1-(4-(2-cyclopropoxyphenyl)pyridin-3-yl)cyclopropoxy)methyl)-N-(thiazol-2-yl)benzenesulfonamide] belongs under 0.1 µM. On the same count and under the same terms, to `O=S(=O)(Nc1ccccc1)c1ccc(Cl)c(COC2(c3cnccc3-c3ccccc3OC3CC3)CC2)c1` [Compound I-771, 4-chloro-3-((1-(4-(2-cyclopropoxyphenyl)pyridin-3-yl)cyclopropoxy)methyl)-N-phenylbenzenesulfonamide] belongs under 0.1 µM; to `O=S(=O)(NCC(F)(F)F)c1ccc(Cl)c(COC2(c3cnccc3-c3ccccc3OC3CC3)CC2)c1` [Compound I-772, 4-chloro-3-((1-(4-(2-cyclopropoxyphenyl)pyridin-3-yl)cyclopropoxy)methyl)-N-(2,2,2-trifluoroethyl)benzenesulfonamide], under 0.1 µM; to `Cc1ccccc1-c1ccncc1C1(OCc2cc(Cl)ccc2Cl)CC1` [Compound I-773, 3-(1-((2,5-dichlorobenzyl)oxy)cyclopropyl)-4-(o-tolyl)pyridine], 0.126 to 1 µM. Turning to `COc1cc(C)ccc1-c1ccncc1C1(OCc2cc(Cl)ccc2Cl)CC1` [Compound I-774, 3-(1-((2,5-dichlorobenzyl)oxy)cyclopropyl)-4-(2-methoxy-4-methylphenyl)pyridine], the EC50 was 0.126 to 1 µM. Turning to `O=C(NCCCCNS(=O)(=O)c1ccc(Cl)c(COC2(c3c[n+]([O-])ccc3-c3ccccc3OC3CC3)CC2)c1)[C@@H](O)[C@@H](O)[C@H](O)[C@@H](O)CO` [Compound I-775, 3-(1-((2-chloro-5-(N-(4-((2S,3S,4R,5S)-2,3,4,5,6-pentahydroxyhexanamido)butyl)sulfamoyl)benzyl)oxy)cyclopropyl)-4-(2-cyclopropoxyphenyl)pyridine 1-oxide], the EC50 is 0.126 to 1 µM. Still for that read-out and setting: the figure for `CN(CCCCNC(=O)N[C@@H](CO)[C@@H](O)[C@@H](O)[C@H](O)CO)S(=O)(=O)c1ccc(Cl)c(COC2(c3cnccc3-c3ccccc3OC3CC3)CC2)c1` [Compound I-776, 4-chloro-3-((1-(4-(2-cyclopropoxyphenyl)pyridin-3-yl)cyclopropoxy)methyl)-N-methyl-N-(4-(3-((2S,3R,4R,5R)-1,3,4,5,6-pentahydroxyhexan-2-yl)ureido)butyl)benzenesulfonamide] is under 0.1 µM; for `CN1C[C@@H]2C[C@H]1CN2S(=O)(=O)c1ccc(Cl)c(COC2(c3cnccc3-c3ccccc3OC3CC3)CC2)c1` [Compound I-777, (1S,4S)-2-((4-chloro-3-((1-(4-(2-cyclopropoxyphenyl)pyridin-3-yl)cyclopropoxy)methyl)phenyl)sulfonyl)-5-methyl-2,5-diazabicyclo[2.2.1]heptane] it is 0.126 to 1 µM. Regarding `CN(CCCCNC(=O)N[C@H](CO)[C@@H](O)[C@H](O)[C@H](O)CO)S(=O)(=O)c1ccc(Cl)c(COC2(c3cnccc3-c3ccccc3OC3CC3)CC2)c1` [Compound I-778], the EC50 was under 0.1 µM. The same measure, in the same setting: the figure for `CCC(OCc1cc(Cl)ccc1Cl)c1cnccc1-c1ccccc1OC1CC1` (stereo not drawn) [Compound I-779, 4-(2-cyclopropoxyphenyl)-3-(1-((2,5-dichlorobenzyl)oxy)propyl)pyridine] is 1.26 to 10 µM; for `CC(=O)N1C[C@@H]2C[C@H]1CN2S(=O)(=O)c1ccc(Cl)c(COC2(c3cnccc3-c3ccccc3OC3CC3)CC2)c1` [Compound I-780, 1-((1S,4S)-5-((4-chloro-3-((1-(4-(2-cyclopropoxyphenyl)pyridin-3-yl)cyclopropoxy)methyl)phenyl)sulfonyl)-2,5-diazabicyclo[2.2.1]heptan-2-yl)ethan-1-one] it is 0.126 to 1 µM.
